The results in this text go back to US20240409519A1, “HYDROGENATED QUINOXALINES” (OTSUKA PHARMACEUTICAL CO., LTD., priority 2021, published 2024).

Data set [1] addresses T1, norepinephrine (NE) uptake (Rattus norvegicus, UniProt Q63380).
T1 construct: used as crude synaptosomal fraction; from tissue; host or cells: rat hippocampus, crude synaptosomal fraction
The data set is described as follows: Norepinephrine (NE) uptake inhibitory activity using rat brain synaptosome. Type of data set: biochemical. The conditions noted are these: rat hippocampus synaptosome, tritium-labeled NE 12 nM; read-out: IC50 (nM), norepinephrine (NE) uptake inhibition. The method, then:
Male Wistar rats were decapitated, each brain was removed, and the hippocampus was cut out. […] The homogenate was centrifuged at 1000 g at 4° C. for 10 minutes, and the supernatant was further centrifuged at 20000 g at 4° C. for 20 minutes. The pellet was suspended in an incubation buffer (20 mM Hepes buffer (pH 7.4) containing 10 mM glucose, 145 mM sodium chloride, 4.5 mM potassium chloride, 1.2 mM magnesium chloride and 1.5 mM calcium chloride) and used as crude synaptosomal fraction.
Each well of a 96-well round-bottom plate was used for the uptake reaction in a total volume of 200 μL solution containing purgurin (final concentration 10 μM) and ascorbic acid (final concentration 0.2 mg/mL).
After 10 minutes, the uptake reaction was terminated by suction filtration onto a 96-well glass fiber filter plate. The filters were rinsed with cold physi-ological saline solution, dried thoroughly, and micro scintillation 0 (Perkin-Elmer) was added thereto. Then, the residual radioactivity on the filters was measured.
The uptake value when only solvent was added was set as 100%, the uptake value when unlabeled NE (final concentration 10 μM) was added as 0% (nonspecific uptake value), and the 50% inhibitory concentration was calculated from the concentration of the test compound and its inhibitory activity.

The target in the next data set is T2, dopamine (DA) uptake (Rattus norvegicus, UniProt P23977).
T2 construct: used as crude synaptosomal fraction; from tissue; host or cells: rat striatum, crude synaptosomal fraction
T2 sequence (P23977 whole entry): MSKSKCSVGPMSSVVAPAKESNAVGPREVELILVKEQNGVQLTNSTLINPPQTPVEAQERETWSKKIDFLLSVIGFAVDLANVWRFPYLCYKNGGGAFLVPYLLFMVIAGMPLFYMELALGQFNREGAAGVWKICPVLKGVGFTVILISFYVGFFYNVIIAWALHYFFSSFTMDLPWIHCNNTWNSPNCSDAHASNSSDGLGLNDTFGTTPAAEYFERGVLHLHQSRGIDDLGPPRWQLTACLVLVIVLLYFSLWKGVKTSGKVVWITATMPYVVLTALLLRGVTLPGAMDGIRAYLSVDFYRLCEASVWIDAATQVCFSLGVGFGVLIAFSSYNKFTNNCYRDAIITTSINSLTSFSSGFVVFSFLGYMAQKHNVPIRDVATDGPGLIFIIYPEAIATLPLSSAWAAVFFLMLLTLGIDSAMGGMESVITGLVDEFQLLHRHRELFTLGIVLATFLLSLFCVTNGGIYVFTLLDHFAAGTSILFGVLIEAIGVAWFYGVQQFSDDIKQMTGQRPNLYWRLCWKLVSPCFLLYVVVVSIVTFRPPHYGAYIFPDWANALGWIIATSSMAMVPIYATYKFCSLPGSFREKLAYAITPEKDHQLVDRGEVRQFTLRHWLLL
In words: Dopamine (DA) uptake inhibitory activity using rat brain synaptosome. The settings on record: rat striatum synaptosome, tritium-labeled DA 2 nM; read-out: IC50 (nM), dopamine (DA) uptake inhibition. Type of data set: biochemical. The method, then:
Male Wistar rats were decapitated, each brain was removed, and the striatum was cut out. […] The homogenate was centrifuged at 1000 g at 4° C. for 10 minutes, and the supernatant was further centrifuged at 20000 g at 4° C. for 20 minutes. The pellet was suspended in an incubation buffer (20 mM Hepes buffer (pH 7.4) containing 10 mM glucose, 145 mM sodium chloride, 4.5 mM potassium chloride, 1.2 mM magnesium chloride and 1.5 mM calcium chloride) and used as crude synaptosomal fraction.
Each well of a 96-well round-bottom plate was used for the uptake reaction in a total volume of 200 μl solution containing purgurin (final concentration 10 μM) and ascorbic acid (final concentration 0.2 mg/mL). In other words, solvent, unlabeled DA or step-diluted test compound was added to each well, and one-tenth of the final volume of the synaptosomal fraction was added to each well, followed by pre-incubation at 37° C. for 10 minutes, and then tritium-labeled DA solution (final concentration 2 nM) was added and the uptake reaction was initiated at 37° C. After 10 minutes, the uptake reaction was terminated by suction filtration onto a 96-well glass fiber filter plate. The filters were rinsed with cold physi-ological saline solution, dried thoroughly, and micro scintillation 0 (Perkin-Elmer) was added thereto. Then, the residual radioactivity on the filters was measured.
The uptake value when only solvent was added was set as 100%, the uptake value when unlabeled DA (final concentration 10 μM) was added as 0% (nonspecific uptake value), and the 50% inhibitory concentration was calculated from the concentration of the test compound and its inhibitory activity.

For a further data set, the target named is T3, CYP2D6 (Homo sapiens, UniProt P10635).
T3 construct: a human liver microsome solution containing three CYP-specific substrates; from tissue; host or cells: human liver microsomes
T3 sequence (P10635 whole entry): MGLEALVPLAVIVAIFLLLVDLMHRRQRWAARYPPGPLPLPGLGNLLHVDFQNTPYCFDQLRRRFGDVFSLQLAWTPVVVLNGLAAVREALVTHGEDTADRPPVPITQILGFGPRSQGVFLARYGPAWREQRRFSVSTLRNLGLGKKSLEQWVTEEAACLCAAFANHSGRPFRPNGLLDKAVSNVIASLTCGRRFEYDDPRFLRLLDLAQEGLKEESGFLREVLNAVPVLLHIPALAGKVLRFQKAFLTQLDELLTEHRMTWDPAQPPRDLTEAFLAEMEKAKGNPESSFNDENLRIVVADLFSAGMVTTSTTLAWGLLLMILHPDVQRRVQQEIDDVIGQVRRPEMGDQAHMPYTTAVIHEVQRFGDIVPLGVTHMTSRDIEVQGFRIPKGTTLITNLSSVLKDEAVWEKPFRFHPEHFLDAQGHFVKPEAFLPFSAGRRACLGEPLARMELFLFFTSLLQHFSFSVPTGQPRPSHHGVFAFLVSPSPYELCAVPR
The data set is described as follows: CYP inhibition test (1): inhibition rate (%) at one concentration, CYP2D6. It is filed as in vitro ADME. The conditions noted are these: human liver microsomes, pH 7.4, probe bufuralol (0.01 mmol/L); test compound 0.01 mmol/L, human liver microsome 0.1 mg/mL, substrate bufuralol, 37° C. 10 minutes; read-out: inhibition rate (%) 2D6. The method, then:
A metabolic reaction was initiated by adding and mixing a test compound solution (final concentration 0.01 mmol/L) and a NADH/NADPH solution (final concentration 1 mmol/L) to a human liver microsome solution containing three CYP-specific substrates (final concentration 100 mmol/L potassium phosphate buffer solution (pH 7.4), 5 mmol/L magnesium chloride, 0.1 mg/mL human liver microsome, 0.005 mmol/L diclofenac (for CYP2C9), 0.01 mmol/L bufuralol (for […]), 0.005 mmol/L midazolam (for CYP3A4)). As an internal standard solution, a solution of each of stable isotopes of the metabolites (50 ng/mL [13C6] hydroxy diclofenac, 5 ng/mL [2H9] hydroxy bufuralol, and 5 ng/mL [13C6] hydroxy midazolam (all stable isotopes)) in methanol was prepared and used as a quenching solution.
Specifically, a metabolic reaction was initiated by adding and mixing 2 μL of a solution of a test compound in acetonitrile (or acetonitrile as a control) to 178 μL of a human liver microsome solution in ice water, followed by preincubation at 37° C. for 1 minute, and then adding 20 μL of a NADH/NADPH solution thereto. After incubation at 37° C. for 10 minutes, 50 μL of the reaction mixture was taken, and then it was added and mixed to 500 μL of a quenching solution to quech the reaction. The mixture was centrifuged (6130 g, 4° C., 10 minutes) and the supernatant was used as a sample for LC-MS/MS.
Peak area ratio ([peak area of metabolite]/[peak area of corresponding stable isotope]) was calculated for a metabolite and a stable isotope of the metabolite as measurement object. By comparing the peak area ratio of each test compound solution with that of the control, the inhibition rate (%) of each CYP species for each test compound was calculated from (1-[peak area ratio of each test compound solution]/[peak area ratio of control])×100.
(Liver microsomes are a subcellular fraction often used to study metabolism.)

T1 sequence (Q63380 1-617): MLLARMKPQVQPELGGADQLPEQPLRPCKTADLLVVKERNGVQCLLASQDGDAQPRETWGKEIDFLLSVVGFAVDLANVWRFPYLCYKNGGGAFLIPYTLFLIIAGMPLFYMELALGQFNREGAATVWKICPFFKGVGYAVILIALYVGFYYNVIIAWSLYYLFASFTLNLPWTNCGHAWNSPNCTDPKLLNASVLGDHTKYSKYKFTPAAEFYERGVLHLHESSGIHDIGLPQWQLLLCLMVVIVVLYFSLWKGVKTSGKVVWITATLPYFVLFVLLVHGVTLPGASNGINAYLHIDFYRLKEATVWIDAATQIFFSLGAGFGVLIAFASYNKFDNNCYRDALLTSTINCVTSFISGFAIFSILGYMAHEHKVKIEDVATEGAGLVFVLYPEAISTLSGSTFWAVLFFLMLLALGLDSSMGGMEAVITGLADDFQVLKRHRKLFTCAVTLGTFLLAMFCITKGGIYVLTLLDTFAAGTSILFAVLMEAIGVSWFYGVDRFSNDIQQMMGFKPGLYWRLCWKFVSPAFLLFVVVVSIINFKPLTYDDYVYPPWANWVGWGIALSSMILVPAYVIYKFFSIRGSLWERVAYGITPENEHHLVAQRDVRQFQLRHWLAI

As to `CC1(C)CN(c2ccc(OCCO)cc2Cl)[C@H]2CCCC[C@H]2N1` [Example 64, 2-(3-chloro-4-((4aR,8aS)-3,3-dimethyloctahydroquinoxalin-1(2H)-yl)phenoxy)ethan-1-ol 1/2fumarate], the IC50 (as a rule, the concentration at which inhibition is half-maximal) in data set [1] was determined as 5.4 nM; at dopamine (DA) uptake, 78.9 nM. Further, at CYP2D6, the inhibition (as a rule, how much of the control response was suppressed) at 10 min, 0.01 mmol/L turned out to be 21.6%.

As to `Cc1c(OC(F)(F)CO)ccc(N2CC(C)(C)N[C@H]3CCCC[C@H]32)c1F` [Example 69, 2-(4-((4aS,8aR)-3,3-dimethyloctahydroquinoxalin-1(2H)-yl)-3-fluoro-2-methylphenoxy)-2,2-difluoroethan-1-ol 1/2fumarate], the concentration for half-maximal inhibition (IC50) is 3.4 nM in data set [1] and 91.4 nM at dopamine (DA) uptake. Further, the inhibition at 10 min, 0.01 mmol/L at CYP2D6 was 45.6%.

With `Cc1c(OC(F)(F)CO)ccc(N2CC(C)(C)N[C@@H]3CCCC[C@@H]32)c1F` [Example 70], the half-maximal inhibitory concentration (IC50) stood at 1 nM in data set [1] and 44.5 nM at dopamine (DA) uptake. Moreover, the inhibition at 10 min, 0.01 mmol/L on CYP2D6 was determined as 28.4%.

In the case of `CC1(C)CN(c2cc(F)c(OC(F)(F)CO)cc2F)[C@H]2CCCC[C@H]2N1` [Example 71], the figures for the IC50 (in data set [1]; on dopamine (DA) uptake) were 6.3 nM and 81.4 nM, respectively. Besides, the inhibition at 10 min, 0.01 mmol/L on CYP2D6 was 28.8%.

As to `CC1(C)CN(c2cc(F)c(OCCO)cc2F)[C@H]2CCCC[C@H]2N1` [Example 72], the IC50 worked out at 7.9 nM in data set [1] and 241 nM at dopamine (DA) uptake. Further, on CYP2D6, the inhibition at 10 min, 0.01 mmol/L stood at 17.9%.

`CC1(C)CN(c2ccc(OC(F)(F)CO)c(F)c2F)[C@H]2CCCC[C@H]2N1` [Example 73]: the half-inhibitory concentration (IC50) in data set [1] came to 2.4 nM; at dopamine (DA) uptake, 68.7 nM. The inhibition at 10 min, 0.01 mmol/L at CYP2D6 is 21.5%.

In the case of `CC1(C)CN(c2cc(Cl)c(OC(F)(F)CO)cc2F)[C@H]2CCCC[C@@H]2N1` [Example 75], the results for the IC50 (in data set [1]; at dopamine (DA) uptake) were 9.7 nM and 35.3 nM, respectively. Further, on CYP2D6, the inhibition at 10 min, 0.01 mmol/L stood at 19.3%.

For `CC1(C)CN(c2cc(Cl)c(OC(F)(F)CO)cc2F)[C@@H]2CCCC[C@H]2N1` [Example 76], the IC50 was found to be 8.8 nM in data set [1] and 60.5 nM at dopamine (DA) uptake. Also, the inhibition at 10 min, 0.01 mmol/L on CYP2D6 stood at 21.9%.

In the case of `CC1(C)CN(c2cc(F)c(OC(F)(F)CO)cc2F)[C@H]2CCCC[C@@H]2N1` [Example 77], the IC50 in data set [1] was 7.1 nM; at dopamine (DA) uptake, 205 nM. In addition, the inhibition at 10 min, 0.01 mmol/L at CYP2D6 was 18.1%.

Turning to `Cc1c(OC(F)(F)CO)ccc(N2CC(C)(C)N[C@H]3CCCC[C@@H]32)c1F` [Example 79], the half-inhibitory concentration (IC50) in data set [1] was 5.8 nM; on dopamine (DA) uptake it was 224 nM. Moreover, the inhibition at 10 min, 0.01 mmol/L on CYP2D6 came out at 38.8%.

On to `CC1(C)CN(c2ccc(OC(F)(F)CO)c(Cl)c2F)[C@@H]2CCCC[C@H]2N1` [Example 80], for which the 50% inhibitory concentration (IC50) in data set [1] came to 12.4 nM; at dopamine (DA) uptake, 90 nM. Also, the inhibition at 10 min, 0.01 mmol/L on CYP2D6 was 20.9%.
